“Also recorded” adds a separate entry of the source.
Experiments:
uveitis = experiment: Uveitis models in rabbits (all the aforementioned animal models: arachidonic acid, argon laser iris photocoagulation, paracentesis); assay type: in vivo, pigmented rabbits; conditions: compared to diclofenac sodium
Experimental: Uveitis is induced in said model by an argon laser iris photocoagulation in pigmented rabbits. Said iris photocoagulation is induced by 500 μm argon laser burns (power 750 mW, duration 0.1 sec). The inflammatory processes resulting therefrom are measured every 30 minutes after the laser induced photo-coagulation, by using the laser cell flare meter (LCFM) technique.
In addition to the non invasive LCFM evaluation of the above mentioned animal model, an invasive evaluation is carried out. Therefore the rabbits are sacrificed one hour and in regular intervals after which said eyes have been subjected to the traumatic uveitis by photocoagulation, and the aqueous humor of said rabbit eyes is sampled. The aqueous protein levels, cell counts and prostaglandins (PGE2, PGD2, 6-keto PGF1α) which represent the degree of an inflammation are biochemically investigated and quantified.
Another animal model is used for the induction of a traumatic uveitis. It is the induction of a uveitis by the paracentesis of the anterior chamber of the rabbit eye. In analogy to the previously described laser induced uveitis model, drugs to be tested, are again administred prior to the paracentesis challenge. […] The aqueous protein levels are again analyzed, quantified and then correlated with the degree of an inflammation.

eye = experiment: Pharmacological studies: topical (ocular) tolerance, efficacy, onset and duration of action
[1] = Lens penetration and ocular distribution of 14-C labelled eye drops after multiple topical ocular administration; assay type: in vivo, chinchilla pigmented rabbits
Experimental: In a first animal model, the ocular distribution and lens penetration of diclofenac potassium and diclofenac sodium is determined after multiple topical ocular administration of a corresponding eye drop composition. […] At regular intervals post-instillation (0.5, 1.5, 2.0 hours), the animals are sacrificed and both eyes are removed. Said eyes are microdissected and the ocular distribution of the radioactivity is measured by a standard scintillation beta counting method.
Lens penetration and ocular distribution of diclofenac potassium and diclofenac sodium were determined after multiple topical ocular administration of corresponding 14-C labelled eye drop composition into the conjunctival sac of the right eye of pigmented rabbits.
At 0.5, 1.5, 2 hours post-instillation, 5 animals for each time-point and each treatment group were sacrificed and the radioactivity content (in ng-Eq/g of structure) in the cornea, aqueous humor, iris-ciliary body, vitreous, whole blood and plasma was measured. At 2 hours post-instillation, the left eyes were removed and the ocular distribution was measured by a standard scintillation beta counting method. The right lenses were used for autoradiography.
The areas under the curve (AUC: ng-Eq/g of structure versus time) were calculated and statistically compared.

[2] = test system: arachidonic acid induced uveitis; experiment: Arachidonic acid induced uveitis, aqueous flare by laser cell flare meter (LCFM)

In the case of O=C(O)Cc1ccccc1Nc1c(Cl)cccc1Cl [diclofenac potassium, potassium 2-[(2,6-dichlorophenyl)amino]-phenyl acetate], the “efficacy in all the aforementioned animal models (in words)” value (uveitis) is reported as “better efficacy”, the “duration of action (in words)” value (eye; e.g. in the eye) is reported as “long lasting duration of action” and the “onset of action (in words)” value (eye; e.g. in the eye) is reported as “surprisingly short onset of action”. For the same compound, the “topical tolerance, e.g. ocular tolerance, and efficacy (in words)” value (eye; in comparison to diclofenac sodium) was “much better topical tolerance, e.g. ocular tolerance, and efficacy”, the “ocular penetration / levels of radioactivity (in words)” value ([1]; in comparison to diclofenac sodium, acetate) was “much superior; also recorded: clearly displayed higher levels of radioactivity” and the “ocular distribution, order of concentrations (in words)” value ([1]; rabbit, in vivo) was “highest concentrations are found in the cornea, and in descending order in the aqueous humor, in the iris ciliary body and in the vitreous”. For the same compound, the “efficacy / degree of inflammation (in words)” value ([2]; 0.05% diclofenac potassium versus 0.1% diclofenac sodium) was “almost totally suppressed” and the “fold efficacy of diclofenac sodium” value ([2]; taking into account 0.1% versus 0.05% drug concentration) was “more than five fold”.
